For assay [1], the system named is BxPC-3 cells. The assay can be described thus: cell viability (MTS). Type of assay: cell-based, human. The text has this: (§1) Pancreatic carcinoma cell lines, PANC-1 (ACC 783), BxPC-3 (ACC 760), and Capan-1 (ACC 244), were obtained from DSMZ (Braunschweig, Germany). Normal human fibroblasts (NHF; 106-05A) were purchased from Sigma-Aldrich (Poznan, Poland). PANC-1 and NHF cells were maintained in DMEM containing 10% fetal bovine serum (FBS) and 1% antibiotic solution. BxPC-3 and Capan-1 cells were maintained in […] with 15% FBS and 1% penicillin/streptomycin solution. Cells were regularly tested for mycoplasma contamination.
(§2) In all experiments, cells were seeded in 96-well plates at a density of 4 × 10^3 (PANC-1, BxPC-3), 5 × 10^3 (Capan-1), and 2 × 10^3 (NHF) cells per well. Plates were incubated for 24 h at 37 °C.
(§3) To evaluate the effect of each compound on cell viability, cells were treated with different concentrations (0–60 µM) of tested compounds for 24, 48, and 72 h. Next, 20 µL of MTS solution was added to each well. Plates were incubated for 2 h at 37 °C. The absorbance was measured at 490 nm. Untreated cells served as a negative control. The number of viable cells is directly proportional to the intensity of color produced. Cell viability is expressed as a percentage of control cells.
(§4) Next, the medium was removed and a fresh medium containing tested compounds (at a concentration of 0–60 µM) was added. Plates were incubated for a further 24 h. Next, 20 µL of MTS solution was added to each well, and incubation was started (for 2 h at 37 °C). The absorbance was measured at 490 nm. Untreated cells served as a negative control.

Another assay relates to PANC-1 cells. The assay can be described thus: cell viability (MTS). Format: cell-based, human.
From the text: as §1, §2, §3, §4

A further assay relates to Capan-1 cells. The assay can be described thus: cell viability (MTS). Format: cell-based, human.
From the text: as §1, §2, §3, §4

Assay [2] concerns normal human fibroblasts (NHF). The assay can be described thus: cell viability (MTS). Format: cell-based.
From the text: as §1, §2, §3, §4

For assay [3], the system named is PANC-1, BxPC-3, Capan-1 cells and NHF. Type of assay: cell-based, human.
From the text: as §1, §2, §3

Assay [4] concerns PANC-1, BxPC-3 and NHF cells. The assay can be described thus: cell migration (scratch assay), statements for several cell lines together. Format: cell-based, human. The settings on record: for effect on cell migration: scratch assay, 0-40 µM, 24 and 48 h. On the procedure:
In all experiments, cells were seeded in 24-well plates at a density of 7 × 10^3 (PANC-1, BxPC-3) and 4 × 10^3 (NHF) cells per well and incubated for 48 h. Next, clear lines were made using a sterile 10 μL pipette tip. The medium was carefully removed, and 500 µL of fresh medium was added to the cells. For evaluation of the effect of each compound on cell proliferation, cells were treated with different concentrations (0–40 µM) of tested compounds. Phase-contrast microscopic pictures were taken at 24, 48, and 72 h, and the area of the wound was measured using Image J software (National Institute of Health, V1.5, Bethesda, […], USA). […] Phase-contrast microscopic pictures were taken at 6 and 24 h. The cell migration rate was calculated by measuring the area of the wound at each timepoint. The measurements were performed using ImageJ software. The medium was not changed during the experiment. Due to its inability to form a confluent monolayer, cell migration was not evaluated for Capan-1 cells.

Assay [5] concerns the target T1, DRD2 (Rattus norvegicus, UniProt P61169).
T1 construct: from tissue; host or cells: Wistar rat brain and spinal cord membranes
The assay can be described thus: [3H]spiperone competition binding (DRD2 displacement), membrane homogenates. The settings on record: 0.25 nM [3H]spiperone.
Method: (§5) Rats were decapitated, and their brains and spinal cords were quickly removed. […] Briefly, the brains and spinal cords were homogenized in freshly prepared ice-cold Tris-HCl buffer (50 mM, pH 7.4) and centrifuged at 18,000 rpm for 20 min (4 °C). The resulting supernatant was removed while the pellet was taken up in the original volume of Tris-HCl buffer. The homogenate was further incubated at 37 °C for 30 min and again centrifuged. The received pellet was consequently suspended in 50 mM Tris-HCl (pH 7.4) buffer and kept until analysis at −80 °C.
(§6) In DRD1 displacement, the Tris-HCl buffer (pH 7.4) contained 120 mM NaCl, 5 mM KCl, 1 mM MgCl2, 2 mM CaCl2, and 1 µM mianserin. In DRD2 displacement, the Tris-HCl buffer (pH 7.4) was a mixture of 5 mM KCl, 2 mM MgCl2, 2 mM CaCl2, and 1 µM ketanserin. The incubation of tissue membranes was performed in the presence of the unlabeled ligands in increasing concentrations (10^−10–10^−5 M) at 35 °C for 45 min with [^3H]SCH-23390 and at 25 °C for 120 min with [^3H]spiperone. […] The experiment was performed in duplicate and repeated at least three times.
(§7) In the competition binding assays, the IC50 value was calculated using ‘one site competition’ fitting. The inhibitory activity was presented as a percentage of the specific binding observed.

Assay [6] has as its system BxPC-3 cells. The assay can be described thus: cell migration (scratch assay). Type of assay: cell-based, human. The settings on record: BxPC-3, after 24 h. On the procedure:
In all experiments, cells were seeded in 24-well plates at a density of 7 × 10^3 (PANC-1, BxPC-3) and 4 × 10^3 (NHF) cells per well and incubated for 48 h. Next, clear lines were made using a sterile 10 μL pipette tip. The medium was carefully removed, and 500 µL of fresh medium was added to the cells.
For evaluation of the effect of each compound on cell proliferation, cells were treated with different concentrations (0–40 µM) of tested compounds. Phase-contrast microscopic pictures were taken at 24, 48, and 72 h, and the area of the wound was measured using Image J software (National Institute of Health, V1.5, Bethesda, MA, USA).
The cell migration rate was calculated by measuring the area of the wound at each timepoint. The measurements were performed using ImageJ software. The medium was not changed during the experiment. Due to its inability to form a confluent monolayer, cell migration was not evaluated for Capan-1 cells.

For assay [7], the target named is T1, DRD2. The assay can be described thus: ligand-stimulated [35S]GTPγS binding (G-protein activity), membrane homogenates. Type of assay: biochemical. Particulars: for maximal G-protein efficacy (Emax): basal activity = 100%; for EC50: logarithm of EC50, read-out: potency (log EC50) (converted). In general terms: GTPγS resists hydrolysis and so accumulates on activated G proteins.

Assay [8] concerns the target T2, DRD1 (Rattus norvegicus, UniProt P18901). The assay can be described thus: biochemical.
Method: as §5, §6, §7
The test system of the next assay is GRP-Rs. On the set-up: method as in PMID 1850273. Particulars: compared with GRP; cited from earlier work.
Assay [9] has as its target T2, DRD1. The settings on record: read-out: IC50, DRD1; rat spinal cord homogenates; 2 nM [3H]SCH-23390.
Method: as §5, §6, §7
Setting [10] is: Homo sapiens, Fibroblast, NHF, 24 h.
Where [11] appears, read: Homo sapiens, Fibroblast, NHF, 48 h.
Setting [12] is: Homo sapiens, Fibroblast, NHF, 72 h.
The mark [13] stands for this setting: rat spinal cord membrane homogenates.

Where two headings read alike, the source gives them in different places. Square brackets hold non-standard residues; d marks the D form. Peptide text beside a SMILES is read from it. pGlu = O=C1CC[C@@H](C(=O)O)N1

T1 sequence (P61169 whole entry): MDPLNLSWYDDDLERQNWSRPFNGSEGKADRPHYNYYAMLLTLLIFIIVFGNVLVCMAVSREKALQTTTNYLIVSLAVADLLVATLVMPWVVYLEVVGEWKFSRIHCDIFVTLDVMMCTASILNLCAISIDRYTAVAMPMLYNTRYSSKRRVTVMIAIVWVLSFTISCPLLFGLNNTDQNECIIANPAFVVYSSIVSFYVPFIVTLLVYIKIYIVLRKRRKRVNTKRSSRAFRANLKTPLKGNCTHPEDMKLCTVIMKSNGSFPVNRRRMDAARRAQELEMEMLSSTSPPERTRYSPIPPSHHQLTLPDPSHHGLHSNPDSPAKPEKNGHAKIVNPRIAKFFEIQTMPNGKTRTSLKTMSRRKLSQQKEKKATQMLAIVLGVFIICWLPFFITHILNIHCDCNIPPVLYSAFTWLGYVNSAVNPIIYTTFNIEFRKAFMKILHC
T2 sequence (P18901 whole entry): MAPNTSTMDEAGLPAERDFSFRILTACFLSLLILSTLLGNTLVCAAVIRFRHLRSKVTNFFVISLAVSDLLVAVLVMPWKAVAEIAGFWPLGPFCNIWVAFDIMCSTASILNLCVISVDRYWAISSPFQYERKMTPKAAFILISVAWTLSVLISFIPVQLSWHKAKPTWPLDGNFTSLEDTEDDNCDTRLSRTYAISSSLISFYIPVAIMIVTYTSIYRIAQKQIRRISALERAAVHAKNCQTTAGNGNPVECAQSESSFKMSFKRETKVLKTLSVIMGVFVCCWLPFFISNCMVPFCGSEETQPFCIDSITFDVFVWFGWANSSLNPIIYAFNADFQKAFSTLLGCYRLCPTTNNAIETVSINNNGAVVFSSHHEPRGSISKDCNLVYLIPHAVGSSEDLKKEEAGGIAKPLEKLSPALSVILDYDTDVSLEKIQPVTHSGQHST

In general, IC50 refers to the concentration that inhibits the measured activity by half. In the case of `NCCc1ccc(O)c(O)c1` [Dopamine], the IC50 with BxPC-3 cells [1] (Homo sapiens, BXPC-3, 24 h) was > 60 µM; with BxPC-3 cells [1] (Homo sapiens, BXPC-3, 48 h) it was > 60 µM; in the assay with BxPC-3 cells [1] (Homo sapiens, BXPC-3, 72 h), > 60 µM; with PANC-1 cells (Homo sapiens, PANC-1, 24 h), > 60 µM; with PANC-1 cells (Homo sapiens, PANC-1, 48 h), > 60 µM; with PANC-1 cells (Homo sapiens, PANC-1, 72 h), > 60 µM. Further, the IC50 in the assay with Capan-1 cells (Homo sapiens, CAPAN-1, 24 h) is > 60 µM; with Capan-1 cells (Homo sapiens, CAPAN-1, 48 h), > 60 µM; in the assay with Capan-1 cells (Homo sapiens, CAPAN-1, 72 h), > 60 µM; in assay [2] (setting [10]) it was > 60 µM; in assay [2] (setting [11]), > 60 µM; in assay [2] (setting [12]), > 60 µM. For the same compound, the “effect on cell viability” value in assay [3] (all tested cells) was “increase in cell viability”. The “effect on cell migration” value in assay [4] was “did not significantly increase”.

Take `Nc1ccn([C@@H]2O[C@H](CO)[C@@H](O)C2(F)F)c(=O)n1` [Gemcitabine, gemcitabine]: the IC50 was > 60 µM in the assay with BxPC-3 cells [1] (Homo sapiens, BXPC-3, 24 h); 0.643 ± 0.05 µM in the assay with BxPC-3 cells [1] (Homo sapiens, BXPC-3, 48 h); 0.296 ± 0.15 µM in the assay with BxPC-3 cells [1] (Homo sapiens, BXPC-3, 72 h); > 60 µM in the assay with PANC-1 cells (Homo sapiens, PANC-1, 24 h); 0.28 ± 0.031 µM with PANC-1 cells (Homo sapiens, PANC-1, 72 h); > 60 µM with Capan-1 cells (Homo sapiens, CAPAN-1, 24 h). Besides, the IC50 in the assay with Capan-1 cells (Homo sapiens, CAPAN-1, 72 h) was 0.657 ± 0.13 µM; in [2] (setting [10]), > 60 µM; in assay [2] (setting [12]), 1.28 ± 0.1 µM. Besides, in assay [4], the “effect on cell migration” value was “slower migration with increasing concentration”.

Broadly, the EC50 is the concentration at which the effect is half-maximal. In the case of `CSCC[C@H](NC(=O)[C@H](Cc1ccccc1)NC(=O)[C@H](Cc1c[nH]cn1)NC(=O)CNC(=O)[C@@H](NC(=O)[C@H](C)NC(=O)[C@H](Cc1c[nH]c2ccccc12)NC(=O)[C@H](CCC(N)=O)NC(=O)[C@@H]1CCCN1C(=O)[C@@H](NC(=O)[C@@H]1CCC(=O)N1)C(C)C)C(C)C)C(N)=O` [Ranatensin] ([pGlu]VPQWAVGHFM-NH2), the IC50 is > 60 µM with BxPC-3 cells [1] (BxPC-3, 48 h); > 60 µM in the assay with BxPC-3 cells [1] (BxPC-3, 72 h); > 60 µM in the assay with PANC-1 cells (PANC-1, 48 h); > 60 µM in the assay with PANC-1 cells (PANC-1, 72 h); > 60 µM in the assay on Capan-1 cells (Capan-1, 48 h); > 60 µM in the assay with Capan-1 cells (Capan-1, 72 h). For the same compound, the IC50 on DRD2 [5] (rat brain membranes) is 0.0127 µM; on DRD2 [5] (rat spinal cord homogenates), 0.0488 ± 0.00115 µM; in assay [2] (NHF, 48 h), > 60 µM; in assay [2] (NHF, 72 h), > 60 µM; at DRD1 [8], > 10 µM; on DRD1 [9], > 10 µM. Also, the “effect on cell viability” value with PANC-1 cells (PANC-1, prolonged incubation (48 and 72 h)) is reported as “significant increase in PANC-1 cell viability”; in assay [2] (NHF, longer exposure (48 and 72 h)), “reduction in fibroblast viability compared to untreated cells”; in assay [3] (cancer cells, 24 h) it was “lower viability compared to the untreated cells”. Also, the “decrease in viability compared to the control” value in the assay with Capan-1 cells (Capan-1, RAN only, 24 h) is listed as “around 20%”. Further, in the assay on BxPC-3 cells [6], the “concentration with total wound closure” value was ≥ 20 µM. Moreover, at DRD2 [7] (conclusion from binding and [35S]GTPγS assays), the “functional character at DRD2” value is “DRD2 agonist”. In addition, the “maximal G-protein efficacy (Emax)” value at DRD2 [7] (rat brain membrane homogenates) was determined as 124.1%; at DRD2 [7] (setting [13]) it was 119.8%. The values for the EC50 on DRD2 [7] (rat brain membrane homogenates) and on DRD2 [7] (setting [13]) were 0.0184 µM and 0.78 µM, respectively. In addition, the “Emax in presence of selective DRD2 antagonist risperidone” value on DRD2 [7] (rat brain, basal = 100%) was 101.5%; at DRD2 [7] (rat spinal cord, basal = 100%) it was 100.0%. Further, the “Emax in presence of selective DRD1 antagonist SCH-39166” value at DRD2 [7] (rat spinal cord membranes, basal = 100%) worked out at 117.4%. The “affinity for GRP-Rs” value in the assay with GRP-Rs is on record as “equal affinity for GRP-Rs to GRP itself”. For the same compound, the “migration rate of DRD2-blocked cells” value in [4] (PANC-1 and BxPC-3, risperidone pretreated, 24 h) is recorded as “slower in comparison to cells treated with RAN alone”. Besides, in assay [4], the “effect on cell migration” value was “migrated at a similar rate to untreated cells”.

For `O=c1[nH]c2ccccc2n1C1CCN(CCCC(c2ccc(F)cc2)c2ccc(F)cc2)CC1` [Pimozide, pimozide], the half-maximal inhibitory concentration (IC50) in the assay with BxPC-3 cells [1] (Homo sapiens, BXPC-3, 24 h) amounted to 21.7 ± 2.27 µM; in the assay on BxPC-3 cells [1] (Homo sapiens, BXPC-3, 48 h), 16.1 ± 0.94 µM; in the assay with BxPC-3 cells [1] (Homo sapiens, BXPC-3, 72 h), 17.8 ± 1.38 µM; in the assay with PANC-1 cells (Homo sapiens, PANC-1, 24 h), 15.1 ± 1.51 µM; in the assay with PANC-1 cells (Homo sapiens, PANC-1, 48 h), 17 ± 1.08 µM; in the assay on PANC-1 cells (Homo sapiens, PANC-1, 72 h) it was 20.3 ± 2.02 µM. Also, the IC50 with Capan-1 cells (Homo sapiens, CAPAN-1, 24 h) came to 25.3 ± 3.11 µM; in the assay on Capan-1 cells (Homo sapiens, CAPAN-1, 48 h), 20.7 ± 1.3 µM; in the assay on Capan-1 cells (Homo sapiens, CAPAN-1, 72 h), 20 ± 1.79 µM; in assay [2] (setting [10]), 38.7 ± 1.37 µM; in assay [2] (setting [11]) it was 28.7 ± 3.82 µM; in assay [2] (setting [12]), 23.6 ± 0.92 µM. Further, the “effect on cell migration” value in assay [4] is given as “decreased with the increasing concentration”.

As to `Cc1nc2n(c(=O)c1CCN1CCC(c3noc4cc(F)ccc34)CC1)CCCC2` [Risperidone], the “effect on cell viability” value in assay [2] is “no effect”. Further, the “decrease in cell viability” value in [3] was “up to 20%”.

(Values after article PMC9688159 (Cancers, 2022).)
